According to PMC4226669, “Anti-cancer potency of tasquinimod is enhanced via albumin-binding facilitating increased uptake in the tumor microenvironment” (Oncotarget, 2014):

Experiments:
[1] = test system: human umbilical vein endothelial cells (HUVECs); test: 3D in vitro endothelial sprouting and tube formation assay; format: cell-based
From the text: A three-dimensional (3D) in vitro endothelial sprouting and tube formation assay was utilized to define the anti-angiogenic potency of tasquinimod vs. these metabolites. In this 3D assay, human umbilical endothelial cells (i.e., HUVECs) are initially grown on microcarrier beads and the cell coated beads embedded in fibrin gels with media conditioned by normal human lung fibroblasts. Under these 3D-conditions, endothelial cells “sprout” producing 3D neovessel tubes with patent lumen within one week, Figure 4A - left panel. When tasquinimod is added at the initiation to these 3D-cultures, sprouting of the endothelial cells is inhibited, Figure 4B-right panel, with the potency for such inhibition, expressed as an IC50 value (i.e., the concentration of drug which inhibits by 50% the endothelial sprouting) of 0.5 μM, Figure 4C. […] Using this 3D-HUVEC assay, the potency (i.e., expressed as IC50) of tasquinimod metabolites to inhibit endothelial sprouting was compared to tasquinimod. […] To further confirm that tasquinimod itself and not the carboxamide-N-demethylated metabolite is the active drug, the response to ketoconazole alone and in combination with tasquinimod was tested in the 3D-endothelial sprouting assay.
The 3-dimensional (3D) in vitro angiogenic sprouting and tube formation assay was used as described previously. This 3D-endothelial sprouting assay was conducted using a minimum of 5 replicate wells per drug dose per experiment, repeated 3 independent times using human umbilical vein endothelial cells (HUVECs; Lonza Walkersville, Inc.) with modification that 20 μL of 10X concentrated Dulbecco's Modified Eagle's Media/10%FCS media conditioned by confluent human primary lung fibroblasts (Lonza) diluted to 200 μL of growth factor supplemented EGM-2 media (Lonza) was used instead of fibroblast co-culture.

[2] = test system: CWR-22Rv1, LAPC-4, LNCaP and HUVEC cells; test: Nuclear drug uptake in 3 prostate cancer lines and HUVEC; format: cell-based, human
From the text: To determine the total nuclear concentration of drug (Nt), a modified protocol was needed to allow the rapid lyses of cells and rapid isolation of cell nuclei by differential centrifugation. This could not be accomplished using the usual method of detergent lyses because detergents extract bound drug due to its lipophilicity. Therefore, a detergent free protocol using nitrogen cavitation was developed to rapidly lyse cells and allow the rapid isolation of nuclei via differential centrifugation. Using this cavitation protocol, it was documented that within 1 hour, total nuclear drug concentration (Nt) equals that of the protein-free drug concentration in the media (i.e., 0.2 μM), and that after 4 hours equals PMt (i.e., see Figure 3B, right panel for representative results for the CWR-22Rv1 cells). From 8 hours onward, Nt is more than 10 fold higher than the free and 2 fold higher than the total drug concentration in the media, Figure 3B, right panel. For example at 24 hours post exposure to 1 μM tasquinimod in 10% FBS containing media, the Nt is 2.4 ± 0.3 μM, Figure 3B, right panel. At this 24 hours period, total radioactive drug in isolated nuclei from all 3 prostate cancer lines, as well as HUVEC cells (i.e., nuclear concentration in these 4 lines ranged from 2.2-3.1 μM) was extracted with acetonitrile and the extracts analyzed by HPLC. […] To resolve this, nuclear uptake was determined 24 hours post exposure to 1 μM tasquinimod in serum free media. These studies again documented that nuclear tasquinimod concentration in these 4 cell lines ranged from 2.5-3.5 μM documenting that binding to albumin is not required for cell uptake.
To specifically determine the concentration of tasquinimod within the cell nucleus, 10^7 cells were incubated in 1ml of tissue culture media containing 10% fetal bovine serum (FBS) plus 1μM ^14C-labeled tasquinimod for varying times before the cells were centrifuged rapidly (i.e., 1000xG for 2 min) to remove the drug containing media. The cells were rapidly resuspended in phosphate buffered saline and exposed to pressurized (i.e., 500lbs/sq in) N2 in a nitrogen cavitation devise (i.e., Parr bomb, Parr Instrument Company, Moline, Il) for 5 min before the plasma membranes were lysed by the rapid release of the pressure. This detergent free procedure lyses >98% of the cells without disrupting either mitochondria or lysosomes. […] The radioactivity of this pellet was counted and used to calculate the total amount of tasquinimod associated with 10^7 cell nuclei. To determine the nuclear drug concentration, this total nuclear drug amount was […] the total volume of 10^7 cell nuclei determined from the average diameter of the nuclei determined electronically using Cellometer AutoT4.

[3] = set-up: method as in PMID 16955399; conditions: adult male mice, 0.1-30 mg/kg via gavage or drinking water; cited from earlier work

With `COc1cccc2c1c(O)c(C(=O)N(C)c1ccc(C(F)(F)F)cc1)c(=O)n2C` [Tasquinimod] the “sprouting of HUVEC cells in 3-D culture” value ([1]; 1μM, 5 days co-treatment with conditioned media from fibroblasts) was “Lack of sprouting”, the IC50 ([1]; Homo sapiens, HUVEC, 3D-HUVEC sprouting assay, read-out: IC50 (concentration of drug which inhibits by 50% the endothelial sprouting)) was ~500 nM and the “nuclear concentration, range over 4 lines” value ([2]; 24 hours, 1 μM in 10% FBS media) was 2.2 to 3.1 µM. For the same compound, the “nuclear tasquinimod concentration, range over 4 cell lines” value ([2]; 24 hours, 1 μM in serum free media) was 2.5 to 3.5 µM, the “drug present within nuclei that is non-metabolized tasquinimod” value ([2]; 24 hours, each of 4 cell lines, HPLC) was > 95% and the intracellular drug concentration ([2]; exposure of cancer and endothelial cells to 0.5-1μM) was 2 to 3 µM. The “bioavailability and oral absorption” value [3] was “excellent”.
